With `O=C(Cl)N1CC=C(c2ccccc2)CC1` the melting point was 63 °C.
`O=C(O)C1=Cc2cc(I)ccc2NC1C(F)(F)F` (configuration not stated) gave a melting point of 188 to 192 °C.
`CNc1c(C(=O)OC)c(C)nc2c1c1ccccc1n2C` gave a melting point of 90 to 91 °C.
Compound `OCCCN1CCN2c3ccccc3Cc3ccccc3C2C1` (configuration not stated) has a melting point of 127 to 128 °C.
For `CCc1cc2c3c(ccc2[nH]1)OCC(CN1CC=C(c2c[nH]c4ccc(F)cc24)CC1)O3` (configuration not stated), the melting point was 81 to 82 °C.
`CS(=O)(=O)OC[C@@H]1CCC(=O)N1` showed a melting point of 72 to 74 °C.
Work on `CCOC(=O)CNC(=O)/C=C/S(=O)(=O)c1ccccc1` yielded a melting point of 156 to 157 °C.
For `CC(C)(C)OC(=O)CN1CC(c2ccco2)SCC(N2C(=O)c3ccccc3C2=O)C1=O` (configuration not stated), the melting point was 158 to 161 °C.
Work on `O=[N+]([O-])c1ccc(-c2ccc(-c3ccc([N+](=O)[O-])cc3C(F)(F)F)o2)c(C(F)(F)F)c1` yielded a melting point of 158 to 159 °C.
In the case of `CS(=O)(=O)c1ccc(C2=C(c3ccc(C#N)cc3)CCC2)cc1`, the melting point is reported as 163 to 164 °C.
With `Cc1ccc(S(=O)(=O)N2CC[C@@H](C)[C@@H]2c2ccc(F)cc2)cc1` (racemic) the melting point was 112 °C.
`Cc1cc(Oc2c(Cl)cc(C(F)(F)F)cc2[N+](=O)[O-])n[nH]1` showed a melting point of 120 to 123 °C.
`COCc1nc(NC(=O)NS(=O)(=O)c2ccccc2C(=O)OC)nc(SC)n1` showed a melting point of 147 to 149 °C.
Work on `Cc1cc(O)nc2c1c(C)nn2-c1ccccn1` yielded a melting point of 254 to 255 °C.
Compound `CCOC(=N)c1sc2cc(Cl)ccc2c1O` has a melting point of 226 °C.
Compound `CCOC(=O)C(C(=O)N(C)C)=C(OC(=O)c1ccccc1)c1ccc(Cl)cc1Cl` has a melting point of 106 °C.
`Cc1cnc(-c2cc3c(OC[C@@H](O)CN4CCC(c5ccc6ccccc6c5)CC4)cccc3s2)o1` gave a melting point of 138 to 139 °C.
With `COc1cc(C)c2c(c1)c1c(n2Cc2ccc(Cl)cc2)C(CC(=O)O)CCC1` (configuration not stated) the melting point was 188 °C.
For `Cc1c(N)ccc([N+](=O)[O-])c1Cl`, the melting point was 134 to 138 °C.
With `CCCCc1nn(-c2cc(NC(=O)CC)ccc2C(F)(F)F)c(=O)n1Cc1ccc(-c2ccccc2S(=O)(=O)NC(=O)c2ccccc2F)cc1F` the melting point was 119 to 122 °C.
Work on `COc1ccc(C(C#Cc2ccccc2)CC(=O)N(C)C)cc1OC1CCCC1` (racemic) yielded a melting point of 87 to 89 °C.
`Nc1nc(N)c(-c2cc(Cl)cc(Cl)c2Cl)c(C(F)(F)F)n1` showed a melting point of 226 to 227 °C.
Compound `COc1ccc(COC(=O)CC(=O)Oc2ccc3sc4nc(-c5ccc(OC)cc5)cn4c3c2)cc1` has a melting point of 158 to 160 °C.
`C=CCCn1c(=O)c2c(ncn2CCC)n(C)c1=O` gave a melting point of 48 °C.
In the case of `C[C@]12Cc3ccccc3[C@H]1Nc1ccccc12` (relative stereo), the melting point is reported as 72 °C.
`Nc1ccc(-c2cnc(COCc3cc4ccccc4o3)o2)cc1` gave a melting point of 96 to 98 °C.
With `Cn1cc(Br)c(=O)c(-c2cccc(C(F)(F)F)c2)c1` the melting point was 167 to 169 °C.
For `Cc1ccc(C(C#N)(Cc2c[nH]cn2)c2ccccc2)cc1` (configuration not stated), the melting point was 188 to 193 °C.
In the case of `c1ccc(-c2nn3c(c2-c2cncc4cccnc24)CCC3)nc1`, the melting point is reported as 180 to 184 °C.
With `COc1ccc2c(c1)C(c1ccc(Cl)cc1)=C1CCC(=S)NC12` (configuration not stated) the melting point was 202 to 203 °C.
For `COCCC(=O)N[C@H]1CC[C@H](CCN2CCN(c3nc(C)cc4occc34)CC2)CC1`, the melting point was 158 °C.
For `O=C(O)c1ccccc1OCCN1CCC(c2cn(CCC3OCCO3)c3ccccc23)CC1`, the melting point was 118 to 120 °C.
`COc1ccc(CCN(C)CCc2ccc(NC(=O)c3cccc4c(=O)c5ccccc5[nH]c34)cc2)cc1` showed a melting point of 179 °C.
Compound `Ic1ccc2c(c1)ncn2-c1cccc(-n2cccn2)c1` has a melting point of 209 to 211 °C.
`CC1(C)C(=O)Nc2ccc(-c3cc(F)cc(C#N)c3)cc21` showed a melting point of 231 to 232 °C.
`CC(=O)Nc1ccc2c(c1)CCC(=CN(C)C)C2=O` showed a melting point of 207 to 210 °C.
For `CCNC(=O)c1ncn2c1CN=C(c1ccccc1Br)c1cc(F)ccc1-2`, the melting point was 218 to 220 °C.
In the case of `CCCCCCCCCCCC(=O)O[C@H](CCCCCCCCCCC)CC(=O)N[C@@H](CO)C(=O)OCc1ccccc1`, the melting point is reported as 53 to 54 °C.
`OCCCc1cc(-c2ccc(Cl)cc2)n(-c2c(Cl)cncc2Cl)n1` gave a melting point of 108 to 110 °C.
In the case of `N#CCc1nnc(N)s1`, the melting point is reported as 163 to 164 °C.
`CNCNc1cc(C(N)=O)ccc1C(C)(C)C` gave a melting point of 143 to 144 °C.
`CCCCCCc1ccc(C(=O)Nc2ccc3cc(CN4CCCC4)cnc3c2C)cc1` showed a melting point of 116 °C.
Compound `Nc1nc(Br)nc2c1ncn2C1OC(CO)C(O)C1F` (configuration not stated) has a melting point of 209 to 210 °C.
Work on `CS(=O)c1ccc(-c2nn(Cc3ccc(F)cc3)c(=O)cc2-c2ccc(F)cc2)cc1` (configuration not stated) yielded a melting point of 198 °C.
In the case of `COc1ccnc(NC(N)=S)c1`, the melting point is reported as 214 to 217 °C.
Work on `ClCc1c(-c2ccccc2)c(-c2ccccc2)nn1-c1ccccc1` yielded a melting point of 122 °C.
Work on `OC(CCCN1CCN(c2noc3ccccc23)CC1)c1ccc(F)cc1` (configuration not stated) yielded a melting point of 142 to 144 °C.
With `Cc1cc(I)cc2[nH]c(=O)oc12` the melting point was 248 to 250 °C.
For `COc1ccc(C2CNC(=O)N2C(C)c2ccccc2)cc1OC1CC2CCC1C2` (configuration not stated), the melting point was 151 to 154 °C.
Compound `CCOC(=O)c1cc(C#N)cc(C)n1` has a melting point of 50 °C.
With `O=c1[nH]ncc(N2CCN(Cc3ccccc3)CC2)c1Cl` the melting point was 173 to 175 °C.
`Cc1c(C(C)O)cc(C(C)C)c(-c2ccc(O)cc2)c1Cl` (configuration not stated) gave a melting point of 220 to 222 °C.
With `OCCON=Cc1ccc(-c2ccccc2)nc1` the melting point was 100 to 101 °C.
Compound `CC(=O)OCC=C(C)CS(=O)(=O)c1ccccc1` has a melting point of 86 to 92 °C.
Work on `COC(=O)c1ccc(-c2ccc3cc(OCc4ccc(F)cc4)c(C45CC6CC(CC(C6)C4)C5)cc3c2)cc1O` yielded a melting point of 189 to 191 °C.
For `CC(C)c1cc(Br)cc(C(C)C)c1N=C(c1ccccc1)c1ccccc1`, the melting point was 114 °C.
Work on `COc1ccc(C2CC(c3ccccc3)=NN2c2ccc(S(N)(=O)=O)cc2)cc1` (configuration not stated) yielded a melting point of 111 °C.
In the case of `CCc1nc2cnc3cc(Br)cnc3c2n1CC(C)(C)O`, the melting point is reported as 207 to 208 °C.
Compound `O=C(O)COCc1cc2cc(C(F)(F)F)ccc2n1S(=O)(=O)c1ccccc1` has a melting point of 158 to 160 °C.
`CCOP(=O)(CCc1cc(OCc2ccc(OCc3nc(-c4ccco4)oc3C)c(OC)c2)nn1-c1ccccc1)OCC` gave a melting point of 76 to 77 °C.
Compound `CNS(=O)(=O)c1nc2ccc(O)cc2s1` has a melting point of 189 to 190 °C.
Compound `COc1cccc(Oc2ccc3nc(C(C)=O)c(O)cc3c2)c1` has a melting point of 102 to 104 °C.
`Cc1ccc(S(=O)c2cccc(-c3nc(=O)c4ccccc4s3)n2)cc1` (configuration not stated) gave a melting point of 228 °C.
With `C=CCNC(=S)C(OC)c1ccccn1` (configuration not stated) the melting point was 59.5 to 60 °C.
For `COCC(=O)COc1c([N+](=O)[O-])ccc(F)c1F`, the melting point was 39 to 42 °C.
With `CCOCc1nc2c(N)nc3c(c2n1CCCCS(=O)(=O)NC)CCCC3` the melting point was 188 to 192 °C.
`CCCCCNc1cccc2c1CN(C1CCC(=O)NC1=O)C2=O` (configuration not stated) gave a melting point of 244 to 246 °C.
With `CN(C)c1nc2c(N)cc(Br)cc2n1C` the melting point was 137 °C.
With `COc1ccc(-c2ccc3nc(N)c4ncn(CC(C)C)c4c3c2)c(OC)c1` the melting point was 223 to 227 °C.
Work on `Cc1ccc(/C=C/C(=O)Nc2cccc(NC(=N)c3ccccc3)c2)cc1` yielded a melting point of 147 to 149 °C.
Work on `COC(=O)N(CC(=O)O)C(=O)c1c(OCC(F)(F)F)ccc2c(C(F)(F)F)c(OC)ccc12` yielded a melting point of 186 to 187 °C.
With `COC(=O)CCCc1nc(Cl)c2c(n1)[nH]c1ccccc12` the melting point was 258 °C.

Source: a melting point compilation (Tetko et al.; mined from patent text by program, amines drawn as free bases though some values may be those of a salt)
